Experiments:
[1] = system: excitatory amino acid carrier protein derived from rabbit; test: effect of external K+ on current evoked by L-glutamate; format: cell-based; settings: 50 μM L-glutamate, 0-50 mM K+, -30 mV, FIG. 10
Description: (§1) Xenopus laevis oocytes were injected with cRNA (25 ng/oocyte) encoding for the excitatory amino acid carrier protein derived from rabbit as described in Example 1. Electrophysiological measurements were performed 3-4 days after injection using a conventional two-microelectrode voltage clamp method (Axoclamp-2A, Axon Instruments, CA).
The bath medium were prepared containing potassium ion concentrations in concentrations ranging from 0 mM-50 mM. The bath media were held at a holding potential of -30 mV, and normalized to the current measured on the same oocyte (the value at 0 mM K^+ is 100%). Consecutive current measurements were made on single oocytes after changing to bath medium containing the appropriate K^+ concentration. […] The bath medium contained z mM KCl (where z=0-50), 50-z mM choline Cl, 50 mM NaCl, 1.8 mM CaCl2, 1.0 mM MgCl2, 10 mM BaCl2, 5 mM HEPES pH 7.4.

[2] = target: T1, excitatory amino acid carrier protein (EAAC1) derived from rabbit (Oryctolagus cuniculus, UniProt P31597); test: uptake of 14C-L-glutamate or 14C-L-aspartate by Xenopus oocytes injected with rabbit EAAC1 cRNA; format: cell-based; settings: carrier protein of Seq. ID No. 4
T1 sequence (P31597 1-524): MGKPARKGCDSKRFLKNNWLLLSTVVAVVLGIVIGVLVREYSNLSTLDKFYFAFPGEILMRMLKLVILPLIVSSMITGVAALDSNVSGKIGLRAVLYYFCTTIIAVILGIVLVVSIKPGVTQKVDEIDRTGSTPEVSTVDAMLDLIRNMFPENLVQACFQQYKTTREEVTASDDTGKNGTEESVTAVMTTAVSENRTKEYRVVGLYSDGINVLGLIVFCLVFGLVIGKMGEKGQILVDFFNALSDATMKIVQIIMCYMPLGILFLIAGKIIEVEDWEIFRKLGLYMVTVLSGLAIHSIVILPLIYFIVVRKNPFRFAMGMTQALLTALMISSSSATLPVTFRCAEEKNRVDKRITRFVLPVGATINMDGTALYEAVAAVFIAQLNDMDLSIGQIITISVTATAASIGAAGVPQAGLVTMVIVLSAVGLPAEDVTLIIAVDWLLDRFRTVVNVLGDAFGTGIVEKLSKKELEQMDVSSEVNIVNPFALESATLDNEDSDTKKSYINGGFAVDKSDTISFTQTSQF
Description: Poly(A)^+ RNA was isolated and injected into collagenase-treated and manually-defolliculated Xenopus laevis oocytes.
All uptakes in this and the following figures were performed with 6-8 oocytes, 3 days after injection. […] For the sodium-free medium, sodium chloride was replaced by Choline-chloride. RNA-injected oocytes were injected with 25 ng cRNA in 50 nl.
The solutions described above were modified to the extent that acetate ion was substituted for chloride ion.

[3] = target: T2, Human High Affinity Glutamate Transporter HEAAC1 (Homo sapiens, UniProt P43005); test: inhibition of L-glutamate-evoked currents in oocytes expressing human carrier; format: cell-based; set-up: expressed in transfected cells; host or cells: Xenopus laevis oocytes (cRNA injection; human kidney clone K-3); settings: for Ki / IC50: HEAAC1; for Ki: based on the kinetics for competitive inhibition; for order of sensitivity to inhibitors based on IC50 values: current induced by 100 μM L-glutamate; for inhibition of the current induced by L-glutamate: L-glutamate 10-1,000 μM, DHK 1 mM
T2 sequence (P43005 1-524 V96L/K170N/P172A/L260H): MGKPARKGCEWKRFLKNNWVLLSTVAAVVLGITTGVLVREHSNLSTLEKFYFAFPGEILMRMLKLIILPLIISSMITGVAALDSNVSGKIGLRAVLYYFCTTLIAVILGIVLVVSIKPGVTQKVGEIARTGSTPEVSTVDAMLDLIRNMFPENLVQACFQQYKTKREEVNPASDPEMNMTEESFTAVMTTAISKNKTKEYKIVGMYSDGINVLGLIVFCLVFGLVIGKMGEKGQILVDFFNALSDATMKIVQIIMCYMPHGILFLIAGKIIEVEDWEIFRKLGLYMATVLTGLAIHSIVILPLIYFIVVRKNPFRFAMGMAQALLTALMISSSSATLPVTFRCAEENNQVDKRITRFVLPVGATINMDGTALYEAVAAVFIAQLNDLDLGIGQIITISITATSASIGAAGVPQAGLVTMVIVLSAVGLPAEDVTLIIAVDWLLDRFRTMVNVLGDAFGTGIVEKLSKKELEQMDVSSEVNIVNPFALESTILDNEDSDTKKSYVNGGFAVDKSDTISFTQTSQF
Text: (§2) The glutamate evoked currents were first measured without addition of inhibitor. […] Calculation of KI values was based on the kinetics for competitive inhibition.

[4] = target: T3, rabbit derived excitatory amino acid carrier (Oryctolagus cuniculus, UniProt P31597); test: inhibition of current evoked by L-glutamate in oocytes expressing rabbit EAAC1; format: cell-based
T3 construct: ID No. 4; expressed in transfected cells; host or cells: Xenopus laevis oocytes injected with cRNA (25 ng/oocyte)
T3 sequence (P31597 1-524): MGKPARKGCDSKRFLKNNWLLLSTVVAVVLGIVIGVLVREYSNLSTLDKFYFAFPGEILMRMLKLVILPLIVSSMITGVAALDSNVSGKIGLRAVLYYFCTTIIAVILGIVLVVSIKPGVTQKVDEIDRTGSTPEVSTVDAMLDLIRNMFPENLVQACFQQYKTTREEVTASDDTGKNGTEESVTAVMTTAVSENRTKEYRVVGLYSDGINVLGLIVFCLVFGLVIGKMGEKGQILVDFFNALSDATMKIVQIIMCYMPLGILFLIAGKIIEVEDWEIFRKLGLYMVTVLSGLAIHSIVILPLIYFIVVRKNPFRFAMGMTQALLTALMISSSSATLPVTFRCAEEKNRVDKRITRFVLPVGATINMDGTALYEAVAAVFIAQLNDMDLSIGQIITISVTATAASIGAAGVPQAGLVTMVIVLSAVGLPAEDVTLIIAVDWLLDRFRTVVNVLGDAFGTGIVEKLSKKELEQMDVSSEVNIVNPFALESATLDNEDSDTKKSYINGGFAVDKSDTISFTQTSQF
Description: as §1
The standard bath solution (ND 96) contained 96 mM NaCl, 2 mM KCl, 1.8 mM CaCl2, 1.0 mM MgCl2 and 5 mM HEPES pH 7.4 The recording chamber was perfused with bath solution. Current responses of Xenopus laevis oocytes injected with cRNA coding for the excitatory amino acid carrier protein and fragments thereof to bath applied 100 μM substrates are illustrated in FIG. 7.
Example 7 illustrates the application of the electrophysiological features of the excitatory amino acid carrier protein, derived from rabbit, described in Example 6 in the screening of drugs to enhance or inhibit the protein. The Xenopus laevis oocytes was injected with rabbit derived excitatory amino acid carrier cRNA and processed as described in Example 6. […] Robinson, M. B., Hunter-Ensor, M. & Sinor, J., "Pharmacologically distinct sodium-dependentL-[3H]glutamate transport process in rat brain," Brain Research 544:196-202 (1991).

[5] = target: T2, Human High Affinity Glutamate Transporter HEAAC1; test: substrate-evoked currents in oocytes expressing human carrier; settings: for inward currents induced: AAD at 50 μM, DHK up to 1 mM
Text: as §2
Oocytes were used for two-microelectrode voltage-clamping as described above and command potentials were applied and controlled by an IBM-compatible computer via the software CLAMPEX from pCLAMP (version 5.5 Axon Instruments, CA). The oocyte membrane was held at -50 mV and pulsed to the test potential for […] followed by a 1 sec interpulse interval at the holding potential of -50 mV before application of the next pulse. Current was low-pass filtered at […], digitized at 200 μsec and saver on the computer. Steady-state currents were obtained by averaging the current between 72 and 76 msec.

[6] = target: T4, human excitatory amino acid carrier (Homo sapiens, UniProt P43005); test: voltage dependence of currents mediated by human carrier; format: cell-based
T4 sequence (P43005 1-524): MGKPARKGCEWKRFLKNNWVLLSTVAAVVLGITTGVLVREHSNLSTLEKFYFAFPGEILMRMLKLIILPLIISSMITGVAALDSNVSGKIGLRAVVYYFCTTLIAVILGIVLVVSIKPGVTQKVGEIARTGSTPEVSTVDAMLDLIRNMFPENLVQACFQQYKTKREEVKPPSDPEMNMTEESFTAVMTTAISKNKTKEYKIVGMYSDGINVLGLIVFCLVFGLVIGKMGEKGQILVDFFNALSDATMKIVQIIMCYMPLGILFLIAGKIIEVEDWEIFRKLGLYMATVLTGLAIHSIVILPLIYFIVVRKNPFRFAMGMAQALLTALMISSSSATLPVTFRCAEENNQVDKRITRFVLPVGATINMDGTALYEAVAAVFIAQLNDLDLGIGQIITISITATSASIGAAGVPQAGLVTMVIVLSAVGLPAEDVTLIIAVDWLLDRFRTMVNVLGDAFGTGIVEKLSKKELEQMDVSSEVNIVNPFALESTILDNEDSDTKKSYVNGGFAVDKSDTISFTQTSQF
Description: Oocytes were used for two-microelectrode voltage-clamping as described above and command potentials were applied and controlled by an IBM-compatible computer via the software CLAMPEX from pCLAMP (version 5.5 Axon Instruments, CA). The oocyte membrane was held at -50 mV and pulsed to the test potential for msec followed by a 1 sec interpulse interval at the holding potential of -50 mV before application of the next pulse. Current was low-pass filtered at 50 kHz, digitized at 200 μsec and saver on the computer. Steady-state currents were obtained by averaging the current between 72 and 76 msec.

[7] = system: synaptosomal L-glutamate uptake; settings: Robinson et al. / previously known; cited from earlier work
[8] = IC50, L-Glu = 100 um, L-Glu = 100 um

Row | Ki [3] | order of sensitivity to inhibitors based on IC50 values [3] | SMILES | IC50 [4] | IC50 [3, 8] | inhibition of the current induced by L-glutamate [3] | substrate of the carrier / effect on transport [5] | inward currents induced [5] | also measured
1 |  |  | [K+] [K^+, potassium ion] |  |  |  |  |  | inhibition of L-glutamate evoked current by external K+ [1]: greater degree of inhibition of current at higher K^+ concentration
2 |  |  | NC(=O)CC[C@H](N)C(=O)O [Glutamine] |  |  |  |  |  | activity for glutamine transport [2]: slight activity
3 | ~20 µM | THA>PDC>>AAA>DHK | N[C@@H](CCCC(=O)O)C(=O)O [AAD, L-α-aminoadipate] | 165 µM |  |  |  |  | 
4 | ~1 µM | THA>PDC>>AAA>DHK | O=C(O)[C@H]1CN[C@H](C(=O)O)C1 [PDC, L-trans-pyrolidine-2,4-dicarboxylate] |  | 74 ± 11 µM | potent inhibitors | transport substrates | large inward currents | IC50 ([3]; IC50, L-Glu = 1 mM, L-Glu = 1 mM): 91 ± 7.2 µM; maximal transport rate (Vmax) of glutamate uptake ([3]; human carrier): reduces the maximal transport rate (Vmax); preference as uptake inhibitor ([3]; human carrier): preferred uptake inhibitor; Vmax for the PDC-induced current [6]: markedly reduced; overall voltage-dependencies of L-glutamate and PDC evoked currents [6]: identical

Row | SMILES | Ki [3] | order of sensitivity to inhibitors based on IC50 values [3] | IC50 [4] | IC50 [3, 8] | inhibition of the current induced by L-glutamate [3] | substrate of the carrier / effect on transport [5] | inward currents induced [5] | also measured
5 | N[C@H](C(=O)O)[C@H](O)C(=O)O (relative stereo) [THA, DL-threo-β-hydroxyaspartate] |  | THA>PDC>>AAA>DHK | 7.1 µM | 28 ± 0.8 µM | potent inhibitors | transport substrates | large inward currents | inhibition of synaptosomal L-glutamate uptake [7]: strong inhibitor
